Test results reported in patent US20070026433A1, “Epitope testing using soluble HLA” (priority 2001, published 2007).
Where two headings read alike, the source gives them in different places. Ends that are not written are not given here. Peptide text beside a SMILES is read from it. * marks the point of attachment. FITC = O=C1OC2(c3ccc(O)cc3Oc3cc(O)ccc32)c2ccc(NC(=S)*)cc21; 125I = [125I]*

Tests used:
[1] = target: HLA-A*0201 (Homo sapiens, UniProt P04439, D140Y/D185E/D98H/E176V/E277Q/G131W/G231S/I119V/I121R/I166T/I218V/L300P/L318F/N151K/N90K/P208A/P217A/Q86G/Q94H/R138H/R169H/T345S); conditions: cited from earlier work; for IC50: read-out: cell-free systems (^125I) IC50, published values, 125I peptide tracer
[2] = target: T1, sHLA-A*0201 (Homo sapiens, UniProt P04439, D140Y/D185E/D98H/E176V/E277Q/G131W/G231S/I119V/I121R/I166T/I218V/L300P/L318F/N151K/N90K/P208A/P217A/Q86G/Q94H/R138H/R169H/T345S); assay: biochemical; conditions: for kon: read-out: association rate constants kon
[3] = target: T1, sHLA-A*0201; type: binding; parameters: contained the leader peptide, as well as the α1, α2, and α3 coding domains of the HLA heavy chain; made in house; β2m from Fitzgerald Industries International; conditions: 10 nM pFITC, sHLA-A*0201 titration
[4] = target: T1, sHLA-A*0201; assay: Multiple specificity screening by FP; type: binding; parameters: contained the leader peptide, as well as the α1, α2, and α3 coding domains of the HLA heavy chain; made in house; β2m from Fitzgerald Industries International; conditions: 10 nM peptide, 100 μg/mL activated sHLA
Protocol: Multiple Specificity Screening. To determine the specificity for sHLA-A*0201 as well as potential cross-reactivity to other sHLA alleles, 48 different sHLA alleles were screened for binding with the A*0201 pFITC constructs (FIG. 15). For screening purposes, each peptide candidate (10 nM) was incubated with 100 μg/mL activated sHLA, and the peptide/HLA interaction was monitored over time. As expected, no significant binding was detected to any of the B-alleles tested (FIG. 15B), whereas a high binding affinity was observed between sHLA-A*0201 and the pFITC candidates. An exception was pFITC P3 (FIG. 15A). […] The significant decrease in association kinetics recorded after 0.8 h seems to imply that the HLA class I molecule is not stabilized following exposure to this peptide, irrespective of whether it attempted to bind. […] Thus, modification of the residue at the P4 nonanchor position of pFITC P3 may not affect the specificity and association kinetics of peptide binding but rather seems to affect the stability of the class I peptide interaction.

[5] = target: T1, sHLA-A*0201; assay: biochemical; type: binding; parameters: contained the leader peptide, as well as the α1, α2, and α3 coding domains of the HLA heavy chain; made in house; β2m from Fitzgerald Industries International
[6] = target: T2, A*1102 (Homo sapiens, UniProt P04439, A114D/D185E/E176A/E43K/F33Y/L180Q/S129P/T187R); assay: Multiple-specificity screening of FITC-labeled peptides (supertyping, FP); type: binding; conditions: 2 nM peptide, 100 μg/ml activated sHLA
T2 construct: contained the leader peptide, as well as the α1, α2, and α3 coding domains of the HLA heavy chain; made in house
Excerpt: (§1) Multiple-specificity screening of FITC-labeled peptides: To approach the problem of supertype analysis, a novel, state-of-the-art screening assay was developed that utilizes high quality soluble HLA and the technique of fluorescence polarization (FP). This assay combination allows the direct measurement of the ratio between free and bound labeled ligand in solution without any separation steps. The technique of FP is based on the principal that if a fluorescent-labeled peptide binds to the sHLA molecule of higher molecular weight, polarization values will increase due to the slower molecular rotation of the bound probe.
(§2) To elaborate peptide cross-reactivity among MHC class I molecules, a panel of 53 single-specificity sHLA receptors was screened for their binding capacity towards a series of fluorescent-labeled peptide ligands. During the process, each peptide candidate (2 nM) was incubated with 100 μg/ml of activated sHLA and peptide/MHC interaction was monitored over time on the Analyst™ AD Assay Detection System (Molecular Devices; Sunnyvale, Calif.). For optimal signal output, b2-microglobulin was added in 2× molar excess of the used sHLA concentration. For all preparations, 1× BGG/PBS was used as buffer. The use of appropriate controls allowed accurate estimation of specific polarization. […]

[7] = test system: alleles listed for the B27 supertype; assay: as above; type: binding, human; conditions: 2 nM peptide, 100 μg/ml activated sHLA
Excerpt: as §1, §2

[8] = target: T1, sHLA-A*0201; assay: Epitope screening at a threshold concentration of 80 μM (FP competition); conditions: 80 μM peptide, 50 μg/mL sHLA-A*0201, 1 nM P5, β2m 2117 nM
[9] = cited from earlier work
[10] = read-out: dissociation rate constants
[11] = read-out: dissociation rate constants koff
[12] = 50 μg/mL (1059 nM) sHLA-A*0201, β2m 2117 nM, 1 nM FITC-labeled reference peptide P5, read-out: StD comp assay (FP) IC50

Compound: FLPSDY(^125I)FPSV (FLPSDY(125I)FPSV; listed as Homo sapiens) [iodinated molecule of earlier publications (Sette et al., 1994a)]
- Kd ([1]; Sette et al., 1994a, read-out: affinity of the iodinated molecule in earlier publications): 15.5 nM

Compound: CC(C)C[C@H](N)C(=O)N[C@H](C(=O)N[C@@H](Cc1ccccc1)C(=O)NCC(=O)N[C@@H](CCCCNC(=S)Nc1ccc2c(c1)C(=O)OC21c2ccc(O)cc2Oc2cc(O)ccc21)C(=O)N[C@@H](CCC(=O)O)C(=O)N[C@H](C(=O)N[C@H](C(=O)N[C@@H](CCC(=O)O)C(=O)N[C@H](C(=O)O)C(C)C)C(C)C)C(C)C)C(C)C [P4, L V F G K E V V E V] (H-LVFGK(FITC)EVVEV-OH)
- kon [2]: 9900 M⁻¹ s⁻¹
- koff [2, 10]: 0.00019 to 0.00043 s⁻¹
- koff [2, 11]: 0.000284 s⁻¹

Compound: N L S K L S L D V (NLSKLSLDV; also: FITC label, position not given here; listed as Homo sapiens) [P3]
- saturation curve / stable complex formation with sHLA-A*0201 [3]: not able to form stable complexes with sHLA-A*0201
- binding [4]: failed to attain a higher polarization level compared to the other candidates

Compound: YLLPAIVHI
- IC50 [1]: 18 nM
- IC50 [5, 12]: 510 nM

Compound: GRAFVTIKK
- binding capacity [6]: high A*1102 binding capacity
- binding [7]: did not bind

Compound: LVMAPRTVL (listed as Homo sapiens)
- inhibition at 80 μM [8]: minor

Compound: fluorescein isothiocyanate [FITC]
- pKa [9]: approximately 6.5

Compound: CC[C@H](C)[C@H](NC(=O)[C@H](Cc1c[nH]c2ccccc12)NC(=O)[C@@H](NC(=O)CNC(=O)[C@H](Cc1ccccc1)NC(=O)[C@H](CO)NC(=O)[C@@H](NC(=O)[C@H](CC(C)C)NC(=O)[C@@H](N)Cc1ccc(O)cc1)C(C)C)C(C)C)C(=O)O
- IC50 [1]: 1.9 nM

Compound: CSCC[C@H](NC(=O)[C@H](CC(C)C)NC(=O)[C@H](C)N)C(=O)N[C@@H](CC(=O)O)C(=O)N[C@@H](CCCCN)C(=O)N[C@H](C(=O)N[C@@H](CC(C)C)C(=O)N[C@@H](CCCCNC(=S)Nc1ccc2c(c1)C(=O)OC21c2ccc(O)cc2Oc2cc(O)ccc21)C(=O)N[C@H](C(=O)O)C(C)C)C(C)C [P5]
- kon [2]: 86800 M⁻¹ s⁻¹
- koff [2, 10]: 0.00019 to 0.00043 s⁻¹
- koff [2, 11]: 0.000188 s⁻¹

Compound: KLGEFYNQMM
- IC50 [5, 12]: 2820 nM
- IC50 ([5]; IC50 with different pFITC reference peptides): 2480 to 10500 nM
- IC50 ([5]; IC50 within the different tracer systems): 2480 to 10500 nM

Compound: DLVHFASPL
- IC50 [1]: 16700 nM
- IC50 [5, 12]: 366000 nM
